Reference: patent US11382956B2, “Amylin analogues” (Zealand Pharma A/S, priority 2016, dated 2022)
Numbered stars: 1 amine (or outer) side, 2 acyl side, 3 side chain; on linkers, the order of the positions; unused ones are H or OH. Bridge positions count the residues as written; N and C are the ends. Square brackets hold non-standard residues; d marks the D form. Peptide text beside a SMILES is read from it. * marks the point of attachment. C20 diacid = O=C(O)CCCCCCCCCCCCCCCCCCC(=O)*; γGlu = O=C(O)[C@H](CCC(=O)[*:2])N[*:1]; Hyp = O=C(O)[C@@H]1C[C@@H](O)CN1; NMeI = CC[C@H](C)[C@H](NC)C(=O)O; Orn = NCCC[C@H](N)C(=O)O; Sar = CNCC(=O)O

Legend:
[1] = target: T1, recombinant human calcitonin receptor (hCT-R) (Homo sapiens, UniProt P30988); assay: hCT-R cAMP assay (AlphaScreen) in 1321N1 cells; assay type: cell-based; conditions: cAMP formation, 45 min stimulation
T1 construct: host or cells: human astrocytoma cell line 1321N1
T1 sequence (P30988 25-474): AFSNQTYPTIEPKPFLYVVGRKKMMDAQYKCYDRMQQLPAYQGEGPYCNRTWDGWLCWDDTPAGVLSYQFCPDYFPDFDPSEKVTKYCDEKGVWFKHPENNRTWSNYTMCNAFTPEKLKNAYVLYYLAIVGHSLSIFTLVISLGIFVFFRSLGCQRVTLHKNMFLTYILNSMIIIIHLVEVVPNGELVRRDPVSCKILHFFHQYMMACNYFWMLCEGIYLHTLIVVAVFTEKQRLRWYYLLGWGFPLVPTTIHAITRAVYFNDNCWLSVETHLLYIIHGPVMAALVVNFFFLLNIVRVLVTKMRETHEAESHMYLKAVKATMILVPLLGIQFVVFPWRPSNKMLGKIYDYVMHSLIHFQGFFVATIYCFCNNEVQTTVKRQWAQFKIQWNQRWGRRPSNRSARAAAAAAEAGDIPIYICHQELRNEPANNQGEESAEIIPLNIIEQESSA
Text: (§1) For the assessment of the in vitro activity of test peptides, cell lines expressing recombinant human calcitonin receptor (hCT-R) or recombinant human amylin 3 receptor (hAMYR3) in the background of the human astrocytoma cell line 1321N1 were purchased from DiscoveRx Corporation (Cat. No. 95-016106 and 95-0166C6). The hAMYR3 is a hetero-oligomer of the calcitonin receptor (Isoform 2; Gene ID 799) and RAMPS (Gene ID 10268) that forms when both genes are expressed in the same cell. The hCT-R cell line expresses only the recombinant human calcitonin receptor gene (Isoform 2; Gene ID 799). Upon activation of hCT-R or hAMYR3 by the test peptides the formation of cAMP is induced and was measured using the AlphaScreen® cAMP Assay kit from Perkin-Elmer (Cat. No. 6760635R).
(§2) Briefly, 1321N1 cells expressing hCT-R or hAMYR3 were seeded in 384-well microtiter plates (Falcon Optilux White, Cat.-No. 10448642) at 5,000 cells in […] growth medium per well (AssayComplete 1321N1 Cell Culture Kit, DiscoveRx Corp.), and incubated for 24 h at 37° C., 5% CO2. On the day of analysis growth medium was removed and the cells were stimulated by adding 10 μL of stimulation buffer (10 […], 0.1% BSA) containing increasing concentrations of test peptides, and incubation for 45 min at room temperature. The stimulation was stopped by adding 5.6 μL/well donor bead detection mix (5 mM Hepes pH7.4, 0.5% TWEEN 20, 0.1% BSA, 0.05 mg/mL donor beads, 62.5 nM biotinylated cAMP) and 4.5 μL/well acceptor bead solution (5 mM Hepes pH7.4, 0.5% TWEEN 20, 0.1% BSA, 0.05 mg/mL acceptor beads). After thorough mixing the plates were incubated in the dark for 1 h at room temperature and the cAMP content of the resulting cell lysates was estimated according to the AlphaScreen® cAMP Assay manufacturer's instructions. EC50 values were estimated by computer-aided curve fitting of results of at least 7 different compound concentrations.

[2] = target: T2, recombinant human amylin 3 receptor (hAMYR3) (Homo sapiens, UniProt O60896+P30988); assay: hAMYR3 cAMP assay (AlphaScreen) in 1321N1 cells; assay type: cell-based; conditions: cAMP formation, 45 min stimulation
T2 construct: host or cells: human astrocytoma cell line 1321N1
T2 sequence (P30988 25-474): T1 sequence (P30988 25-474)
T2 sequence (O60896 24-148 partner): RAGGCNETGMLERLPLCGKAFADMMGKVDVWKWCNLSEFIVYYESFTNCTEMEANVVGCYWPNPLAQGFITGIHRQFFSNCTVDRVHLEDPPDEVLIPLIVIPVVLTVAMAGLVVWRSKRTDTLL
Text: as §1, §2

[3] = Assessment of chemical stability in 40 mM buffers at 40° C. (RP-HPLC); assay type: physicochemical; conditions: 1 mg/mL
Description: Samples of each test peptide were dissolved in acetate buffer pH 4 and phosphate buffer pH 6 and 7 (all buffer 40 mM). The final peptide concentration was 1 mg/mL. Samples were placed in glass vials and incubated at 40° C. The samples were analyzed by RP-HPLC on a C8 column with gradient elution using a trifluoroacetic acid/acetonitrile/water eluent system. The area-percentage (area-%) of the main peak was determined by UV spectroscopy at 220 nm at each sampling time point.
The % degradation was calculated by subtracting the […].
The results of the chemical stability assessment after 3 days of incubation time are summarized as % degradation in Table 1 (below).
The results of the chemical stability assessment after 14 days of incubation time are summarized as % degradation in Table 2 (below).

| Molecule | EC50 [1] [nM] | EC50 [2] [nM] | % degradation after 14 days at 40° C. pH4 acetate ([3]; acetate buffer pH 4, 14 days) [%] | % degradation after 14 days at 40° C. pH6 phosphate ([3]; phosphate buffer pH 6, 14 days) [%] | % degradation after 14 days at 40° C. pH7 phosphate ([3]; phosphate buffer pH 7, 14 days) [%] |
| --- | --- | --- | --- | --- | --- |
| CC[C@H](C)[C@@H](C(=O)N1CCC[C@H]1C(=O)N[C@@H](CO)C(=O)N[C@@H](CO)C(=O)N[C@H](C(=O)N[C@@H](CCC(=O)O)C(=O)N[C@H](C(=O)NCC(=O)N[C@@H](CO)C(=O)N[C@@H](CC(N)=O)C(=O)N[C@H](C(=O)N1C[C@H](O)C[C@H]1C(N)=O)[C@@H](C)O)C(C)C)[C@@H](C)O)N(C)C(=O)[C@H](C)NC(=O)CN(C)C(=O)[C@H](Cc1ccccc1)NC(=O)[C@H](CO)NC(=O)[C@H](CO)NC(=O)[C@H](CCCNC(=N)N)NC(=O)[C@H](CCC(N)=O)NC(=O)[C@H](CC(C)C)NC(=O)[C@H](Cc1ccccc1)NC(=O)[C@H](Cc1c[nH]cn1)NC(=O)[C@H](C)NC(=O)[C@H](CC(C)C)NC(=O)[C@H](CCCNC(=N)N)NC(=O)[C@H](CCC(N)=O)NC(=O)[C@@H](NC(=O)[C@H](C)NC(=O)[C@@H]1CCCNC(=O)C[C@H](NC(=O)[C@H](CCCNC(=N)N)NC(=O)CC[C@H](NC(=O)CCCCCCCCCCCCCCCCCCC(=O)O)C(=O)O)C(=O)NCC(=O)N[C@@H]([C@@H](C)O)C(=O)N[C@@H](C)C(=O)N[C@@H]([C@@H](C)O)C(=O)N1)[C@@H](C)O [Compound 9, [19CD]-isoGlu-RD()GTAT-Orn()-ATQRLAHFLQRSSF-Gly(Me)-A-Ile(Me)-PSSTEVGSNT-Hyp-NH2] ({C20 diacid-γGlu}-RDGTAT[Orn]ATQRLAHFLQRSSF[Sar]A[NMeI]PSSTEVGSNT[Hyp]-NH2; lactam 2-7) | 0.027 | 0.013 | – | – | – |
| CC[C@H](C)[C@@H](C(=O)N[C@@H](CC(C)C)C(=O)N[C@@H](CO)C(=O)N[C@@H](CO)C(=O)N[C@H](C(=O)N[C@@H](CCC(=O)O)C(=O)N[C@H](C(=O)NCC(=O)N[C@@H](CO)C(=O)N[C@@H](CC(N)=O)C(=O)N[C@H](C(=O)N1CCC[C@H]1C(N)=O)[C@@H](C)O)C(C)C)[C@@H](C)O)N(C)C(=O)[C@H](C)NC(=O)CN(C)C(=O)[C@H](Cc1ccccc1)NC(=O)[C@H](CO)NC(=O)[C@H](CO)NC(=O)[C@H](CCCNC(=N)N)NC(=O)[C@H](Cc1c[nH]cn1)NC(=O)[C@H](CC(C)C)NC(=O)[C@H](Cc1ccccc1)NC(=O)[C@H](Cc1c[nH]cn1)NC(=O)[C@H](C)NC(=O)[C@H](CC(C)C)NC(=O)[C@H](CCCNC(=N)N)NC(=O)[C@H](CCC(=O)O)NC(=O)[C@@H](NC(=O)[C@H](C)NC(=O)[C@@H]1CCCNC(=O)C[C@H](NC(=O)[C@H](CCCNC(=N)N)NC(=O)CC[C@H](NC(=O)CCCCCCCCCCCCCCCCCCC(=O)O)C(=O)O)C(=O)NCC(=O)N[C@@H]([C@@H](C)O)C(=O)N[C@@H](C)C(=O)N[C@@H]([C@@H](C)O)C(=O)N1)[C@@H](C)O [Compound 7, [19CD]-isoGlu-RD()GTAT-Orn()-ATERLAHFLHRSSF-Gly(Me)-A-Ile(Me)-LSSTEVGSNTP-NH2] ({C20 diacid-γGlu}-RDGTAT[Orn]ATERLAHFLHRSSF[Sar]A[NMeI]LSSTEVGSNTP-NH2; lactam 2-7) | 0.289 | 0.032 | – | – | – |

Now from value to molecule:

| EC50 [1] [nM] | EC50 [2] [nM] | % degradation after 14 days at 40° C. pH4 acetate ([3]; acetate buffer pH 4, 14 days) [%] | % degradation after 14 days at 40° C. pH6 phosphate ([3]; phosphate buffer pH 6, 14 days) [%] | % degradation after 14 days at 40° C. pH7 phosphate ([3]; phosphate buffer pH 7, 14 days) [%] | Molecule |
| --- | --- | --- | --- | --- | --- |
| 0.893 | 0.999 | – | – | – | CC[C@H](C)[C@@H](C(=O)N[C@@H](CC(C)C)C(=O)N[C@@H](CO)C(=O)N[C@@H](CO)C(=O)N[C@H](C(=O)N[C@@H](CCC(=O)O)C(=O)N[C@H](C(=O)NCC(=O)N[C@@H](CO)C(=O)N[C@@H](CC(N)=O)C(=O)N[C@H](C(=O)N1C[C@H](O)C[C@H]1C(N)=O)[C@@H](C)O)C(C)C)[C@@H](C)O)N(C)C(=O)[C@H](C)NC(=O)CN(C)C(=O)[C@H](Cc1ccccc1)NC(=O)[C@H](CO)NC(=O)[C@H](CO)NC(=O)[C@H](CCCNC(=N)N)NC(=O)[C@H](CCC(N)=O)NC(=O)[C@H](CC(C)C)NC(=O)[C@H](Cc1ccccc1)NC(=O)[C@H](Cc1c[nH]cn1)NC(=O)[C@H](C)NC(=O)[C@H](CC(C)C)NC(=O)[C@H](CCCNC(=N)N)NC(=O)[C@H](CCC(=O)O)NC(=O)[C@@H](NC(=O)[C@H](C)NC(=O)[C@@H]1CCCCNC(=O)C[C@H](NC(=O)[C@H](CCCNC(=N)N)NC(=O)CC[C@H](NC(=O)CCCCCCCCCCCCCCCCCCC(=O)O)C(=O)O)C(=O)NCC(=O)N[C@@H](CCC(=O)O)C(=O)N[C@@H](C)C(=O)N[C@@H]([C@@H](C)O)C(=O)N1)[C@@H](C)O [Compound 12, [19CD]-isoGlu-RD()GEATK()ATERLAHFLQRSSF-Gly(Me)-A-Ile(Me)-LSSTEVGSNT-Hyp-NH2] ({C20 diacid-γGlu}-RDGEATKATERLAHFLQRSSF[Sar]A[NMeI]LSSTEVGSNT[Hyp]-NH2; lactam 2-7) |
| 1.41 | 0.456 | – | – | – | CC[C@H](C)[C@@H](C(=O)N[C@@H](CC(C)C)C(=O)N[C@@H](CO)C(=O)N[C@@H](CO)C(=O)N[C@H](C(=O)N[C@@H](CCC(=O)O)C(=O)N[C@H](C(=O)NCC(=O)N[C@@H](CO)C(=O)N[C@@H](CC(N)=O)C(=O)N[C@H](C(=O)N1C[C@H](O)C[C@H]1C(N)=O)[C@@H](C)O)C(C)C)[C@@H](C)O)N(C)C(=O)[C@H](C)NC(=O)CN(C)C(=O)[C@H](Cc1ccccc1)NC(=O)[C@H](CO)NC(=O)[C@H](CO)NC(=O)[C@H](CCCNC(=N)N)NC(=O)[C@H](CCC(N)=O)NC(=O)[C@H](CC(C)C)NC(=O)[C@H](Cc1ccccc1)NC(=O)[C@H](Cc1c[nH]cn1)NC(=O)[C@H](C)NC(=O)[C@H](CC(C)C)NC(=O)[C@H](CCCNC(=N)N)NC(=O)[C@H](CCC(=O)O)NC(=O)[C@@H](NC(=O)[C@H](C)NC(=O)[C@@H]1CCCCNC(=O)C[C@H](NC(=O)[C@H](CCCNC(=N)N)NC(=O)CC[C@H](NC(=O)CCCCCCCCCCCCCCCCCCC(=O)O)C(=O)O)C(=O)NCC(=O)N[C@@H]([C@@H](C)O)C(=O)N[C@@H](CC(C)C)C(=O)N[C@@H]([C@@H](C)O)C(=O)N1)[C@@H](C)O [Compound 13, [19CD]-isoGlu-RD()GTLTK()ATERLAHFLQRSSF-Gly(Me)-A-Ile(Me)-LSSTEVGSNT-Hyp-NH2] ({C20 diacid-γGlu}-RDGTLTKATERLAHFLQRSSF[Sar]A[NMeI]LSSTEVGSNT[Hyp]-NH2; lactam 2-7) |
| – | – | 3.0 | 10.1 | 33.2 | N-α-[(S)-4-carboxy-4-(19-carboxynonadecanoylamino)butyryl]-[Arg1,Glu14,His17,Pro37]-pramlintide [NN96, reference compound] |
